Data reported in patent US9499495B2, “Quinazolines and azaquinazolines as dual inhibitors of RAS/RAF/MEK/ERK and PI3K/AKT/PTEN/mTOR pathways” (Asana Biosciences, LLC, priority 2013, dated 2016).

What was measured:
B-RAFV600E = biological target: T1, B-RAFV600E (Homo sapiens, UniProt P15056, V600E); assay: B-RAFV600E radiometric assay; type: biochemical; settings: read-out: Kinase assay B-Raf
T1 construct: purchased Millipore, USA 14-557
Summary of the method: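 B-RAFV600E was preincubated 45 min at rt with compound in 1% DMSO. MEK-K97M (0.5 μg), 5 μM final cold ATP and [γ-32P]ATP were then added for 2 h at rt. Phosphorylated MEK was captured on P81 paper and scintillation-counted; IC50 came from a sigmoidal dose-response fit.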

PI3Kα = biological target: T2, PI3Kα (Homo sapiens, UniProt P42336); assay: PI3 Kinase alpha TR-FRET assay; type: biochemical
T2 construct: made in house; host or cells: SF9 cells
T2 sequence (P42336 whole entry, species assumed): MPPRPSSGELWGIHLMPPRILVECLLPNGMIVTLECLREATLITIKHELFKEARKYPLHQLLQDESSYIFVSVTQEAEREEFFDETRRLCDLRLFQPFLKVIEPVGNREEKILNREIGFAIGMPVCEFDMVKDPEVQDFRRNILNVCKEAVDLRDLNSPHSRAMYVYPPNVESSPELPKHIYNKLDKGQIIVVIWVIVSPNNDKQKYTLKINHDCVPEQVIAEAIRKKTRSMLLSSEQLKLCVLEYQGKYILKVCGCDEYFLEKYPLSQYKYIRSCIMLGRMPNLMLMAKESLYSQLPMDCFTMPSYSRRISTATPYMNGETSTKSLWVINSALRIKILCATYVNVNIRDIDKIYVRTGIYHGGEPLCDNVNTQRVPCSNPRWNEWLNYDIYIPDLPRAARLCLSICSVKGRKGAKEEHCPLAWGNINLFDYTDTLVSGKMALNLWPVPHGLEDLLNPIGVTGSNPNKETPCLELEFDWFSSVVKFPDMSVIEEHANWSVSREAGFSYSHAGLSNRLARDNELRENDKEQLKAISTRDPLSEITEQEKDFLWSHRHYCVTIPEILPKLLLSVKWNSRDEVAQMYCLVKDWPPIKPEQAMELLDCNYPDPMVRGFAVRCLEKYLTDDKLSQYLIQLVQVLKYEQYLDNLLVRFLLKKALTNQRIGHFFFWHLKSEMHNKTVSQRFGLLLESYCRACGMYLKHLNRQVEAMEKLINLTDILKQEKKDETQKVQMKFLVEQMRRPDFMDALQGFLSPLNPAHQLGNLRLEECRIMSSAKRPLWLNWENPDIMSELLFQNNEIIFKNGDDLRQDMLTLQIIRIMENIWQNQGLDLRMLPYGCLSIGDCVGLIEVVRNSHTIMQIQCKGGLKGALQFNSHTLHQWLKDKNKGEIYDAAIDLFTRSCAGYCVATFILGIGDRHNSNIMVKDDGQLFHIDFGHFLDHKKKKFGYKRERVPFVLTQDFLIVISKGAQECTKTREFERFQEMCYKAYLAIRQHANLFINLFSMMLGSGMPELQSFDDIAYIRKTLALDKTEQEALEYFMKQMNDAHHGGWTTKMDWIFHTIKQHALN
T2 sequence (P27986 whole entry partner, species assumed): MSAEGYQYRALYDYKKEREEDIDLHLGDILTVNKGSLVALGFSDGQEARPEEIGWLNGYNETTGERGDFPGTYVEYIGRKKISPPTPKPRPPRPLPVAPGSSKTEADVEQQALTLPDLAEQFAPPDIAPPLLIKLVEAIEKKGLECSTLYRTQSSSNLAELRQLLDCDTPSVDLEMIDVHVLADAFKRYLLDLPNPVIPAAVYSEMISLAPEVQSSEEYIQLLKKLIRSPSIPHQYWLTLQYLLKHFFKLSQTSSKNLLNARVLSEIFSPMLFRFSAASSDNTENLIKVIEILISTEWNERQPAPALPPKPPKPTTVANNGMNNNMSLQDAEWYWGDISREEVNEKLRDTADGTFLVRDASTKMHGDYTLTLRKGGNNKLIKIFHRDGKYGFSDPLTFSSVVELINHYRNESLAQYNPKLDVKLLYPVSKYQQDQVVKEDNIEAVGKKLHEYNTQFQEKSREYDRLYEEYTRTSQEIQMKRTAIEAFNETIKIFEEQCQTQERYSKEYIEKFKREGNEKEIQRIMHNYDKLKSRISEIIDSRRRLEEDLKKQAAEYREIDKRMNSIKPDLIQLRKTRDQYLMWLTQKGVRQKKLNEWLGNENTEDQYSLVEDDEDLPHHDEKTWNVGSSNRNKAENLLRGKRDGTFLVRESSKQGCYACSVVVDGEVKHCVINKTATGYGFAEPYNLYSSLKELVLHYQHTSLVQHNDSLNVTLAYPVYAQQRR
Summary of the method: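 Purified Sf9-expressed p110/p85α (5 ng) was pre-incubated with compound and PIP2 at rt, then ATP was added (PIP2 and ATP both 40 μM) for a 30 min reaction. PIP3 was detected by TR-FRET displacement of biotin-PIP3, and IC50 was taken from dose-response curves of the 665/615 nm emission ratio.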

pERK in A375 cells = assay: In Cell Western (ICW) assay, pERK in A375 cells; type: cell-based; settings: Homo sapiens, A-375, 3 h treatment
Summary of the method: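 After a 3 h compound treatment at 37 °C, fixed RKO or A375 cells were probed for phospho-ERK1/2 (T202/Y204), phospho-S6RP or phospho-AKT T308 and detected with a Eu-tagged anti-rabbit antibody (ex 340/em 615 nm), with Hoechst signal as the cell-number correction. Inhibition was referenced to DMSO, and IC50 values came from sigmoidal dose-response curves.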

pAKT (T308) in RKO cells = assay: In Cell Western (ICW) assay, pAKT-T308 in RKO cells; type: cell-based; settings: Homo sapiens, 3 h treatment
Protocol: (§1) Cell lines A375, A2058 and RKO obtained from the ATCC as provided above, were grown, and after attaining ˜80% confluency were trypsinized, centrifuged and resuspended in fresh media. The cells were seeded at the specified density (20,000 to 50,000) in a 96-well format black-well clear bottom plate (Corning) and incubated overnight at 37° C. in a 5% CO2 incubator. The next day, compound dilutions of test compounds were prepared in 100% DMSO followed by dilutions in respective media. Treatment of test compounds was performed for 3 h at 37° C. in 5% CO2 incubator. Following 3 h drug treatment, the conditional media was discarded and the cells were washed once with cPBS (PBS containing 0.1% magnesium chloride hexahydrate and 0.1% anhydrous calcium chloride) and fixed with 4% paraformaldehyde in cPBS for 1 h at rt. After fixing, the cells were given three washes using cPBST (cPBS containing 0.1% Triton™ X-100 reagent) and then blocked using blocking solution (5% skimmed milk powder or 5% BSA prepared in cPBST) for 2 h at rt with shaking at 300 rpm. The cells were again washed thrice with cPBST and incubated with primary antibody phospho-p44/42 MAPK(Erk1/2)(Thr202/204) antibody (Cell Signaling, Catalog # 9101L), phospho S6 ribosomal protein (Cell Signaling, Catalog #4858L), phospho AKT (Thr 308) (Cell Signaling, Catalog #9275) or phospho AKT (Ser 473) (Cell Signaling, Catalog #4060L) in specified dilutions (1:500-1:2500), prepared in respective blocking solutions, in a racker overnight at 4° C. The next day, the cells were washed with 1× Delfia® wash buffer (4×1 wash) and incubated with secondary antibody (Delfia®-Eu-N1 labeled anti-rabbit antibody; PerkinElmer, Catalog #AD0105; dilutions: 1:2000 to 1:6000 in Delfia® assay buffer (PerkinElmer, Catalog #1244-111)) for 2 h at rt in the dark at 300 rpm. The cells were then given four washes with 1× Delfia® wash buffer and incubated with Wallac Delfia® Enhancement solution (100 μL; PerkinElmer, Catalog #1244-105) for 20 min at rt in the dark at 300 rpm. The fluorescence emission was then read at 615 nm with an excitation wavelength of 340 nm using a Victor V5 Fluorometer (Perkin Elmer, US). The cells were then washed once with 1×cPBS and incubated with 100 μL of 0.5 mg/mL of Hoechst 33258 dye prepared in cPBS and read at 460 nm with 355 nm excitation, thereby evaluating the correction factor.
(§2) The % inhibition for the test compounds of formula (I) (new chemical entities (NCEs)) was calculated keeping DMSO control as 0% and the IC50 values were determined using sigmoidal dose response curve fit in GraphPad Prism® v5 software.

RKO cells = assay: XTT assay for cell viability, RKO cells; type: cell-based; settings: Homo sapiens, 72 h
Protocol: Cell lines (A375 ATCC No. CRL-1619, A2058 ATCC No. CRL-11147 and RKO ATCC No. CRL-2577, American Type Culture Collection (ATCC), Manassas Va.) once attaining ˜80% confluency were trypsinized, centrifuged and resuspended in fresh media. Cells (1000-2000/per well) were seeded in 96-well plate and incubated over-night at 37° C. in a 5% CO2 incubator. Compound dilutions were prepared in 100% DMSO followed by dilutions in the respective media. The cells were treated with NCEs for 72 h at 37° C. in 5% CO2 incubator. After 72 h, freshly prepared XTT (1 mg/ml)/PMS (25 μM) solution was added, incubated for 2 to 3 h at 37° C. and the absorbance was measured at 450 nm using an ELISA plate reader. Keeping DMSO control as 100%, the effect of the compound to inhibit the cell proliferation was calculated and the GI50 values were determined using sigmoidal dose response curve fit in GraphPad Prism® v5 software.

mTOR kinase = biological target: T3, mTOR kinase (Homo sapiens, UniProt P42345); assay: mTOR kinase TR-FRET assay; type: biochemical
T3 construct: purchased Millipore, US
T3 sequence (P42345 1362-2549 limits assumed): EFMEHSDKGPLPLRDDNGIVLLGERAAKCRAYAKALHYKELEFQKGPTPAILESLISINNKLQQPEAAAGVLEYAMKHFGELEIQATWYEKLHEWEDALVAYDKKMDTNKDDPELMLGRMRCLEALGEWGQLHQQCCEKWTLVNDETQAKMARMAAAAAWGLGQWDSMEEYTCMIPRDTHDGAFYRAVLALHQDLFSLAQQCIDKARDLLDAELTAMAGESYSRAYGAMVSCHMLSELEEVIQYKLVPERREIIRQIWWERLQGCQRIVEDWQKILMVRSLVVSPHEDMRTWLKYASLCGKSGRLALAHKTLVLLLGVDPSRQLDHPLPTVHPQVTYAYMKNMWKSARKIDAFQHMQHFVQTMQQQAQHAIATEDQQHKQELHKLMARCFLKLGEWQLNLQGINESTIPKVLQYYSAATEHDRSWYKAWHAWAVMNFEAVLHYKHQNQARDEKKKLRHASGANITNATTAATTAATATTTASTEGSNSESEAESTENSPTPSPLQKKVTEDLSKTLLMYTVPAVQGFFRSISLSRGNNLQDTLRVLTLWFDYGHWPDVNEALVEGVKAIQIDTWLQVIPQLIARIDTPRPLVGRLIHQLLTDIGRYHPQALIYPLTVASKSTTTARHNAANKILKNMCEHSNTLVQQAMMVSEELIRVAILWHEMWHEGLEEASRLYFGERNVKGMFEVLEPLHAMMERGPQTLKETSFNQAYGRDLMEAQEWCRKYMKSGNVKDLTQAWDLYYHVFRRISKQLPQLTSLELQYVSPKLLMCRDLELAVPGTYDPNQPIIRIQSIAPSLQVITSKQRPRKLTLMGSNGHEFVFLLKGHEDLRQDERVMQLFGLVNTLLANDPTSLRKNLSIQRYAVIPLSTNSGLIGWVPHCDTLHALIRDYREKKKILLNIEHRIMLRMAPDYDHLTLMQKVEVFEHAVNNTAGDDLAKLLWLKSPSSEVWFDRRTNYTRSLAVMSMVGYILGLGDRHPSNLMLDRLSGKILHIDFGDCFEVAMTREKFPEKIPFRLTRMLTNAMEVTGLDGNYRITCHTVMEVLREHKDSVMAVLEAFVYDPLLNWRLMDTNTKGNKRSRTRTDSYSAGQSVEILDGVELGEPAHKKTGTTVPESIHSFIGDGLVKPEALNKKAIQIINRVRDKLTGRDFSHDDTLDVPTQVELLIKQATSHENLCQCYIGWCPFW
Summary of the method: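 TR-FRET with ULight-p70 S6K (Thr 389) peptide (50 nM) and 20 μM ATP in 50 mM HEPES pH 7.5, 1 mM EGTA, 3 mM MnCl2; compound pre-incubated with enzyme before substrate addition, reaction at rt, EDTA-stopped. Eu anti-phospho antibody read 665/615 nm; IC50 from sigmoidal dose-response fit.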

A375 cells = assay: XTT assay for cell viability, A375 cells; type: cell-based; settings: Homo sapiens, A-375, 72 h
Summary of the method: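 GI50 derived by sigmoidal dose-response fitting of proliferation normalised to DMSO control (100%). Readout: A450 after 2-3 h with XTT (1 mg/ml)/PMS (25 μM), following 72 h compound treatment at 37° C., 5% CO2 of cells plated at 1000-2000 per well the previous day.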

pERK in RKO cells = assay: In Cell Western (ICW) assay, pERK in RKO cells; type: cell-based; settings: Homo sapiens, 3 h treatment
Protocol: as §1, §2

pS6RP in RKO cells = assay: In Cell Western (ICW) assay, pS6RP in RKO cells; type: cell-based; settings: Homo sapiens, 3 h treatment
Protocol: as §1, §2

T1 sequence (P15056 416-766 V600E limits assumed): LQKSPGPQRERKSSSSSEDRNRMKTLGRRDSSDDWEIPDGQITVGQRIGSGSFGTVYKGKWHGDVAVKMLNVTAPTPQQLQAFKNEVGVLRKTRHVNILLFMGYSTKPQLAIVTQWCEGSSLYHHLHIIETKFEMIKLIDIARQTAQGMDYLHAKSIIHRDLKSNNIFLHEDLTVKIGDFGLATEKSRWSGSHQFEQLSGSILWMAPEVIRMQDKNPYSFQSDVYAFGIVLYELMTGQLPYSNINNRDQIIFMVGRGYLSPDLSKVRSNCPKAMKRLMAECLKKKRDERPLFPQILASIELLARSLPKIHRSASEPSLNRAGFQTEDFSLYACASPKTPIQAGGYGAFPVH

SMILES	IC50 (B-RAFV600E)	IC50 (PI3Kα)	IC50 (pERK in A375 cells)	IC50 (pAKT (T308) in RKO cells)	IC50 (mTOR kinase)	IC50 (A375 cells)	IC50 (pERK in RKO cells)	IC50 (pS6RP in RKO cells)	IC50 (RKO cells)
Nc1ncc(-c2nc(N3CCOCC3)c3nc(-c4cccc(NS(=O)(=O)CCCF)c4F)ccc3n2)cc1Cl [Example 103, N-(3-(2-(6-amino-5-chloropyridin-3-yl)-4-morpholinopyrido[3,2-d]pyrimidin-6-yl)-2-fluorophenyl)-3-fluoropropane-1-sulfonamide]	1 to 100 nM	100 to 1000 nM	100 to 1000 nM	1000 to 10000 nM					1000 to 10000 nM
C[C@@H]1COCCN1c1nc(-c2cnc(N)nc2)nc2c(N3CCOCC3)cc(-c3cccc(NS(=O)(=O)CCCF)c3F)cc12 [Example 73, (R)-N-(3-(2-(2-aminopyrimidin-5-yl)-4-(3-methylmorpholino)-8-morpholinoqulnazolin-6-yl)-2-fluorophenyl)-3-fluoropropane-1-sulfonamide]	1 to 100 nM		1 to 100 nM		1 to 100 nM	1 to 100 nM	1 to 100 nM	100 to 1000 nM	100 to 1000 nM
Nc1ncc(-c2nc(N3CCOCC3)c3nc(-c4cccc(NS(=O)(=O)CCCF)c4F)ccc3n2)cc1F [Example 105, N-(3-(2-(6-amino-5-fluoropyridin-3-yl)-4-morpholinopyrido[3,2-d]pyrimidin-6-yl)-2-fluorophenyl)-3-fluoropropane-1-sulfonamide]	1 to 100 nM	1 to 100 nM	100 to 1000 nM	1000 to 10000 nM		100 to 1000 nM	100 to 1000 nM		1000 to 10000 nM
CNC(=O)Nc1ccc(-c2nc(N3CCOCC3)c3nc(-c4cccc(NS(=O)(=O)CCCF)c4F)ccc3n2)cc1 [Example 139, 3-fluoro-N-(2-fluoro-3-(2-(4-(3-methylureido)phenyl)-4-morpholinopyrido[3,2-d]pyrimidin-6-yl)phenyl)propane-1-sulfonamide]	1 to 100 nM		100 to 1000 nM	100 to 1000 nM	1 to 100 nM	100 to 1000 nM	100 to 1000 nM		100 to 1000 nM
Nc1ncc(-c2nc(N3CCOCC3)c3nc(-c4cccc(NS(=O)(=O)CCCF)c4F)ccc3n2)c(C(F)(F)F)n1 [Example 100, N-(3-(2-(2-amino-4-(trifluoromethyl)pyrimidin-5-yl)-4-morpholinopyrido[3,2-d]pyrimidin-6-yl)-2-fluorophenyl)-3-fluoropropane-1-sulfonamide]	1 to 100 nM	1 to 100 nM	100 to 1000 nM	100 to 1000 nM		100 to 1000 nM	1 to 100 nM		100 to 1000 nM
Cc1nc(N)ncc1-c1nc(N2CCOCC2)c2nc(-c3cccc(NS(=O)(=O)CCCF)c3F)ccc2n1 [Example 109]	1 to 100 nM	1 to 100 nM	1 to 100 nM	1000 to 10000 nM		100 to 1000 nM	100 to 1000 nM		

The next lines start with results.

IC50 (B-RAFV600E)	IC50 (PI3Kα)	IC50 (pERK in A375 cells)	IC50 (pAKT (T308) in RKO cells)	IC50 (mTOR kinase)	IC50 (A375 cells)	IC50 (pERK in RKO cells)	IC50 (pS6RP in RKO cells)	SMILES	IC50 (RKO cells)
1 to 100 nM		1 to 100 nM		100 to 1000 nM	1 to 100 nM	1 to 100 nM	100 to 1000 nM	CCOc1cc(-c2cccc(NS(=O)(=O)CCCF)c2F)cc2c(N3CCOCC3)nc(-c3ccc(N)nc3)nc12 [Example 52, N-(3-(2-(6-aminopyridin-3-yl)-8-ethoxy-4-morpholinoquinazolin-6-yl)-2-fluorophenyl)-3-fluoropropane-1-sulfonamide]	100 to 1000 nM
1 to 100 nM		1 to 100 nM		1 to 100 nM	1 to 100 nM	1 to 100 nM	1 to 100 nM	Nc1ccc(-c2nc(N3CCOCC3)c3cc(-c4cccc(NS(=O)(=O)CCCF)c4F)cc(N4CCOCC4)c3n2)cn1 [Example 5, N-(3-(2-(6-aminopyridin-3-yl)-4,8-dimorpholinoquinazolin-6-yl)-2-fluorophenyl)-3-fluoropropane-1-sulfonamide]	100 to 1000 nM
1 to 100 nM		1 to 100 nM		100 to 1000 nM	100 to 1000 nM	1 to 100 nM	100 to 1000 nM	COc1cc(-c2cccc(NS(=O)(=O)CCCF)c2F)cc2c(N3CCOCC3)nc(-c3ccc(N)nc3)nc12 [Example 30, N-(3-(2-(6-aminopyridin-3-yl)-8-methoxy-4-morpholinoquinazolin-6-yl)-2-fluorophenyl)-3-fluoropropane-1-sulfonamide]	100 to 1000 nM
1 to 100 nM		1 to 100 nM		100 to 1000 nM	1 to 100 nM	1 to 100 nM	100 to 1000 nM	CC(C)Oc1cc(-c2cccc(NS(=O)(=O)CCCF)c2F)cc2c(N3CCOCC3)nc(-c3ccc(N)nc3)nc12 [Example 55, N-(3-(2-(6-aminopyridin-3-yl)-8-isopropoxy-4-morpholinoquinazolin-6-yl)-2-fluorophenyl)-3-fluoropropane-1-sulfonamide]	100 to 1000 nM
1 to 100 nM		1 to 100 nM		1 to 100 nM	1 to 100 nM	1 to 100 nM	100 to 1000 nM	COc1cc(-c2cccc(NS(=O)(=O)CCCF)c2F)cc2c(N3CCOC[C@H]3C)nc(-c3ccc(N)nc3)nc12 [Example 42, (R)-N-(3-(2-(6-aminopyridin-3-yl)-8-methoxy-4-(3-methylmorpholino)quinazolin-6-yl)-2-fluorophenyl)-3-fluoropropane-1-sulfonamide]	100 to 1000 nM
1 to 100 nM		1 to 100 nM		1 to 100 nM	1 to 100 nM	1 to 100 nM	100 to 1000 nM	CC(C)Oc1cc(-c2cccc(NS(=O)(=O)CCCF)c2F)cc2c(N3CCOC[C@H]3C)nc(-c3ccc(N)nc3)nc12 [Example 63, (R)-N-(3-(2-(6-aminopyridin-3-yl)-8-isopropoxy-4-(3-methylmorpholino)quinazolin-6-yl)-2-fluorophenyl)-3-fluoropropane-1-sulfonamide]	100 to 1000 nM
